According to ChEMBL document CHEMBL1124494, “Synthesis and biological evaluation of S-adenosyl-1,12-diamino-3-thio-9-azadodecane, a multisubstrate adduct inhibitor of spermine synthase” (J Med Chem, 1989):
pIC50: −log10 of the molar value.

Each compound was assayed against T1, Spermidine synthase (Rattus norvegicus, UniProt Q99MI5) (assay: Inhibition of spermidine synthase activity was evaluated). Settings: read-out: I50.
T1 sequence (Q99MI5 whole entry): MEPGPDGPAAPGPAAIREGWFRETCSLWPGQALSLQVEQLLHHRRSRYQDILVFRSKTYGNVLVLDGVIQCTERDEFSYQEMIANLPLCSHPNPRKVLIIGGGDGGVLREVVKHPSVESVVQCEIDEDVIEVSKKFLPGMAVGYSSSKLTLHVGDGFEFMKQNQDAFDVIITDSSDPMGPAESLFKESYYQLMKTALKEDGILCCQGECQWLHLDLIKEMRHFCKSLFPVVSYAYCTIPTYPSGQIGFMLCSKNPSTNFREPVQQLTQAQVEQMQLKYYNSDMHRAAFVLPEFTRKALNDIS

| pIC50 | Compound |
| --- | --- |
| < 3.30 | CCCCCC(CC)SC[C@H]1OC(n2cnc3c(N)ncnc32)[C@H](O)[C@@H]1O (stereo partly drawn) |
| < 3.30 | CCCNCCCCCC(CC)SC[C@H]1OC(n2cnc3c(N)ncnc32)[C@H](O)[C@@H]1O (stereo partly drawn) |
| < 4.89 | NCCCNCCCCCC(CCN)SC[C@H]1OC(n2cnc3c(N)ncnc32)[C@H](O)[C@@H]1O (stereo partly drawn) |
